Results: article PMC11997890, “In Vivo and In Vitro Pharmacokinetic Studies of a Dual Topoisomerase I/II Inhibitor” (ACS Pharmacology & Translational Science, 2025)
Each block holds one compound with its values, some of them ahead of it.

Tests used:
[1] = In vitro biotransformation of P8-D6 with mouse tissue PNS; assay type: in vitro ADME; details: mouse liver PNS, 1 mM P8-D6, 150 min
Experimental: P8-D6 (1 mM) was incubated with postnuclear supernatant (PNS), microsomes, or S9 reaction mixture of various tissue samples (liver, kidney, lung, spleen, and colon) from different donor species (pigs, mice, rats, and humans) for 150 min (study preparation scheme supplied as Figure S5). The commercial human and rat enzymes were subjected to quality control by the supplier. Three phase I metabolites were identified. […] LC-MS and NMR spectroscopic data for the metabolites are given in Supporting Information. Based on the structural characteristics, the metabolites were named as follows: P8-DO (4), P8-D6 N-oxide (6), and P8-D6 mono (8). All metabolites were synthesized to confirm the postulated structure (chapter Synthesis of Metabolites). The extent of metabolism during in vitro incubation was highly dependent on the species (pig > mouse > rat > human) (Figure ).
For all phase I metabolism studies (except cell cultures), a 0.3 mL reaction mixture consisting of 1 mM substrate (P8-D6, P8-D6 mono, P8-D6 N-oxide), 1 mM NADPH as a cofactor, 0.67 mg/mL protein from homogenized tissue or subcellular fractions, respectively (except recombinant enzymes, where 0.5 mg/mL was used), and PBS buffer (pH 7.4) was used. All experiments were performed in biological triplicates. […]

CYP2B6 = target: T1, CYP2B6 (Homo sapiens, UniProt P20813); assay: In vitro CYP inhibition, marker substrate bupropion; assay type: in vitro ADME
T1 construct: host or cells: human liver microsomes (one value) / recombinant CYP enzyme (other value)
Experimental: (§1) To assess metabolizing enzyme-mediated drug interactions, P8-D6 was incubated with human liver (HLM) or recombinant CYP enzymes and the respective marker substrate according to the FDA (with the exception of using amitriptyline instead of S-mephenytoin). −
(§2) However, as some conversions were catalyzed by several enzymes, the conversion rates in HLM increased (e.g., bupropion and diclofenac).
(§3) To examine a possible in vitro CYP inhibition, the following CYP enzymes and marker substrates were investigated according to the FDA: , phenacetin (CYP1A2), bupropion (CYP2B6), amodiaquine (CYP2C8), diclofenac (CYP2C9), amitriptyline (CYP2C19), dextromethorphan (CYP2D6), testosterone (CYP3A4), and nifedipine (CYP3A4). Incubation was performed in a 0.2 mL reaction mix consisting of PBS buffer (pH 7.4), 1 mM marker substrate, 1 mM NADPH, and either 0.5 mg/mL recombinant CYP enzyme or human liver microsomes. P8-D6 was added for a final concentration of 0.5 μM, 1 μM, 5 μM, 10 μM, 25 μM, 50 μM, 100 μM, 500 μM, 1000 μM, and (in some cases) 5000 μM. Sample preparation was performed according to in vitro biotransformation.

CYP2C8 = target: T2, CYP2C8 (Homo sapiens, UniProt P10632); assay: In vitro CYP inhibition, marker substrate amodiaquine; assay type: in vitro ADME
T2 construct: host or cells: human liver microsomes (one value) / recombinant CYP enzyme (other value)
Experimental: as §1, §2, §3

Lipophilicity = assay type: physicochemical
CYP2D6 = target: T3, CYP2D6 (Homo sapiens, UniProt P10635); assay: In vitro CYP inhibition, marker substrate dextromethorphan; assay type: in vitro ADME
T3 construct: host or cells: human liver microsomes (one value) / recombinant CYP enzyme (other value)
Experimental: as §1, §2, §3

γ-globulins = assay: Binding to isolated plasma protein by ultrafiltration; parameters: species or system human
Experimental: To examine the effect of the P8-D6 plasma protein binding on the in vivo bioavailability, human and rat plasma was spiked in vitro and incubated with P8-D6. By using ultrafiltration to separate free P8-D6 from the protein-bound fraction, a plasma protein binding of 99% (Figure A) was estimated. However, neither human α-1-microglobulin (3.06%) nor human serum albumin (0.91%) is responsible for binding. According to initial findings, γ-globulins (94.59%), human transferrin (90.43%), LDL (87.99%), human α2-HS glycoprotein (85.29%), and human fibrinogen (78.89%) lead to binding of P8-D6.
To examine the extent of plasma protein binding, 150 μL of blank samples of human plasma (1 mM) and rat plasma (1 mM), human albumin (1 mM, #A1653, Merck KGaA, Darmstadt); human α1-acid glycoprotein (1 mM; #G9885, Merck KGaA, Darmstadt); human α2-HS-glycoprotein (0.1 mM; #G0516, Merck KGaA, Darmstadt); human transferrin (0.2 mM; #T8158, Merck KGaA, Darmstadt); human fibrinogen (0.2 mM; #F3879, Merck KGaA, Darmstadt); LDL (0.2 mM; […]); and human γ-globulin (1 mM; #G4386, Merck KGaA, Darmstadt) were spiked with P8-D6 in the same final concentration as the protein and incubated in a shaking water bath at 37 °C for 120 min. Afterward, the unbound fraction of P8-D6 was separated by ultrafiltration (Vivaspin 500 10 000 MWCO filter). The sample preparation was performed according to plasma samples. […]

CYP2C9 = target: T4, CYP2C9 (Homo sapiens, UniProt P11712); assay: Conversion of P8-D6 by recombinant CYP2C9; assay type: in vitro ADME
T4 construct: host or cells: human liver microsomes (one value) / recombinant CYP enzyme (other value)
Experimental: P8-D6 N-oxide was the most common metabolite for all incubations with subcellular fractions from the homogenized tissue. According to the detected MS-MS fragments (supplied as Supporting Information Chapter 2), it resulted from N-oxygenation of the nitrogen at the side chain since the unmodified fragment of P8-DO (m/z = 414.1) was detected. Furthermore, the detected fragment at m/z = 440.1 is most likely a carbocation at the remaining ethyl chain after splitting off the dimethylamine N-oxide further strengthening the theory of selectively forming this specific N-oxide. In addition, no relevant chemical shifts in the aromatic range of the ^1H NMR compared to P8-D6 and mono were observed (supplied as Supporting Information Chapter 2). Thus, no chemical modifications can have occurred on the aromatic rings, and all changes must therefore affect the side chain. […] To determine which enzymes were responsible for the conversion, seven recombinant CYP 450 isoenzymes recommended by the FDA’s “Guidance for Industry” and human FMO3 were used.
The third and final in vitro metabolite, P8-DO, is a direct synthesis precursor of P8-D6 and results from oxidative O-desalkylation of the complete side chain (Figure ). […] The formation of P8-DO is mainly catalyzed by CYP2C9 (0.10%) and 2D6 (0.09%) (Figure E). […]

T3 sequence (P10635 whole entry): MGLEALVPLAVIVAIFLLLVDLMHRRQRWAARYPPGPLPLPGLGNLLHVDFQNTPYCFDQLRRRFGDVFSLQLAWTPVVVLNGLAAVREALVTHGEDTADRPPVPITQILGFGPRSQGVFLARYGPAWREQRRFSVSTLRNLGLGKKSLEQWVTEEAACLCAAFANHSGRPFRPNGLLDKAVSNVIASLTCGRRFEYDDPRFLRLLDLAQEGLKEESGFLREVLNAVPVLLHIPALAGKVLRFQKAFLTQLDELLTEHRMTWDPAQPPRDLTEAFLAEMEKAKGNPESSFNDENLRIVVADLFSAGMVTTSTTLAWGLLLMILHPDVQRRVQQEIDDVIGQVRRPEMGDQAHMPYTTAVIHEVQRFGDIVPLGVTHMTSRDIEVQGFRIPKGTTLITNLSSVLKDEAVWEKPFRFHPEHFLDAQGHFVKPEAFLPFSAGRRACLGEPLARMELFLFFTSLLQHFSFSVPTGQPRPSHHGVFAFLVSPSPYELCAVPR
T1 sequence (P20813 whole entry): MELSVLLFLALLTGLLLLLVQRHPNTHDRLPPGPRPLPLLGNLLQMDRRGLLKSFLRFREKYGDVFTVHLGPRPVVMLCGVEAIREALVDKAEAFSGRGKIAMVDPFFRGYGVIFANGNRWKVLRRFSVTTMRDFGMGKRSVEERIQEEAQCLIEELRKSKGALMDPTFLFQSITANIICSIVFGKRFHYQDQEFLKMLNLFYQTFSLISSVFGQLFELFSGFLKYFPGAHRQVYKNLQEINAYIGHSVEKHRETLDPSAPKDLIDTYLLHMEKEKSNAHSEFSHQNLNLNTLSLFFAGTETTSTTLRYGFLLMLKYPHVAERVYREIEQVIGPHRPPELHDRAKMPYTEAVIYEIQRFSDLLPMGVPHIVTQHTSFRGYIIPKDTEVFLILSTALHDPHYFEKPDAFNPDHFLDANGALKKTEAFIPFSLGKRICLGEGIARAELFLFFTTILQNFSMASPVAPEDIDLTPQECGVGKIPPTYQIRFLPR
T2 sequence (P10632 whole entry): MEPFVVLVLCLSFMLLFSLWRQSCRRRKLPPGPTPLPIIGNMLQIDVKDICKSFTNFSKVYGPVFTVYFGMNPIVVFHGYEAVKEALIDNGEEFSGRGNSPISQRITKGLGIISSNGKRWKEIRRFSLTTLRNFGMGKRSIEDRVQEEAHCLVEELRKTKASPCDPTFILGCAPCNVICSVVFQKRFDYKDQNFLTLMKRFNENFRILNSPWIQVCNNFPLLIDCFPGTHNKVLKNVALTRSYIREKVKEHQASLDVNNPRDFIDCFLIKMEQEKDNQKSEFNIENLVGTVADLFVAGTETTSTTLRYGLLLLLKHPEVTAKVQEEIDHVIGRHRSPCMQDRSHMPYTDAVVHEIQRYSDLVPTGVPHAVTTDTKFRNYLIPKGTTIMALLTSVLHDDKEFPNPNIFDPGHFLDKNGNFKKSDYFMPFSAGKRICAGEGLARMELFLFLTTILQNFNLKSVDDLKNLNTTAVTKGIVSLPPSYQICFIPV
T4 sequence (P11712 whole entry): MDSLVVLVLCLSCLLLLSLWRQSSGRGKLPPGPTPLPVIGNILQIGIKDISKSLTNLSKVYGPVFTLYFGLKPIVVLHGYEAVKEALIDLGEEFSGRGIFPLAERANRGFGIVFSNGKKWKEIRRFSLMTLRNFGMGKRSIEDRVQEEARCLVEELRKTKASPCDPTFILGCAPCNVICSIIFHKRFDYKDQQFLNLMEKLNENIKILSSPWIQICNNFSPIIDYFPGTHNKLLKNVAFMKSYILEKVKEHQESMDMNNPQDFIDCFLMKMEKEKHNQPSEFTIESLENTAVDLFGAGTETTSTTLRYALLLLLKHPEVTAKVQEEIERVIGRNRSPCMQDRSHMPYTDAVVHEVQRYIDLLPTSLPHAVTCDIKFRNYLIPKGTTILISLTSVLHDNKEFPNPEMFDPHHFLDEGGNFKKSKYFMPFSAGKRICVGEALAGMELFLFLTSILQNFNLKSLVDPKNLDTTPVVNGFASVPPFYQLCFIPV

formation of metabolite from P8-D6 [1]: 3.08%
Structure (SMILES): COc1cc(-c2cc3ccncc3c3nc(OCC[N+](C)(C)[O-])c4cnccc4c23)cc(OC)c1OC [P8-D6 N-oxide]

Structure (SMILES): COc1cc(-c2cc3ccncc3c3nc(OCCN(C)C)c4cnccc4c23)cc(OC)c1OC [P8-D6, 6-(N,N-dimethyl-2-aminoethoxy)-11-(3,4,5-trimethoxyphenyl)-pyrido[3,4-c][1,9]-phenanthroline]
IC50 (CYP2B6; HLM): > 1 mM
IC50 (CYP2B6; recombinant CYP isoenzyme): > 1 mM
IC50 (CYP2C8; HLM): 246 µM
IC50 (CYP2C8; recombinant CYP isoenzyme): 282 µM
logP (Lipophilicity): 2.9
logD (Lipophilicity; pH 7.4, read-out: log D7.4): 3.7
IC50 (CYP2D6; HLM): 285 µM
IC50 (CYP2D6; recombinant CYP isoenzyme): 166 µM
binding of P8-D6 (γ-globulins): 94.59%

formation of metabolite from P8-D6 (CYP2C9): 0.10%
Structure (SMILES): COc1cc(-c2cc3ccncc3c3[nH]c(=O)c4cnccc4c23)cc(OC)c1OC [P8-DO]
